Where a name gives a salt, the structure may show the parent alone.
What was measured:
Assay type in all cases: cell-based, human
[1] = test system: A375 melanoma cells (BRAF mutation); assay: Cell proliferation and colony formation (xCELLigence, CCK-8, clonogenic assay)
Description: Dojindo's highly water-soluble tetrazolium salt (WST-8) is reduced by dehydrogenase activity in cells to give a yellow-color formazan dye, which is soluble in the tissue culture media. The amount of the formazan dye generated by dehydrogenases is directly proportional to the number of living cells. Equal number of cells (1000-2000 cells) were seeded per triplicate in 96-well plates and cultured in the different conditions. Medium was replaced by 100 μL of fresh medium and 10 μL of CCK-8 reagent was added per well. After an incubation for 1 to 4 h at 37° C., absorbance was measured at 450 nm in a NanoQuant microplate reader Infinite M200 (TECAN). Results were calculated as optical density (OD) 450 nm=OD of sample−OD of blank.
The E8 xCELLigence plates were prepared by addition of 100 μL of complete media to every well. After incubation at 37° C., plates were inserted into the xCELLigence station, and the base-line impedance was measured to ensure that all wells and connections were working. Following harvesting and counting, cells were diluted to the selected seeding density and 100 μl of cells in culture medium was added to each well. For the cell proliferation assays for each condition, 1×10^3-5×10^3 cells/well was seeded into 100 μL of media in the E-Plate L8 (Acea Biosciences). The attachment and proliferation of the cells were monitored every 30 min. Cell proliferation was monitored for 48-72 h. Cell Index at each time point is defined as (Rn−Rb)/15, where Rn is the cell-electrode impedance of the well when it contains cells and Rb is the background impedance of the well with the media alone. For the cell adhesion assays, for each condition, 1×10^3-5×10^3 cells/well was seeded into 100 μL of media in E-Plate L8 (Acea Biosciences). Cell proliferation was monitored for 1 h every 10 sec. The extend of cell adhesion and spreading was monitored every min for 1-3 h. Cell Index at each time point is defined as (Rn−Rb)/15, where Rn is the cell-electrode impedance of the well when it contains cells and Rb is the background impedance of the well with the media alone.
(§1) Colony formation assays were performed by seeding 5×10^3 to 5×10^4 cells per well onto 6-12 well plates and grown for 7-15 days. The culture medium was replaced every 48 h. The cells were washed with warm Saline Solution and fixed with cold 2% PFA for 15 min. Cells were washed with 1×PBS and stained with 0.1% of crystal violet (Sigma-Aldrich) for 15 min. After staining, the cells were washed with distilled water and dried at room temperature. The colonies were quantified by diluting crystal violet in 5% acetic acid and 100 μL of the solution was collected to measure the absorbance at 570 nm using a NanoQuant microplate reader Infinite M200 (TECAN).

[2] = test system: p53 and p16 in A375 cells; assay: Western blot of senescence biomarkers p53 and p16; details: Cx43 cells vs cells transfected with empty vector
Description: (§2) The insoluble fraction was resuspended in lysis buffer (membrane).

[3] = test system: HT29 colorectal cancer cells (BRAF mutation); assay: Colony formation assay; details: HT29 transfected with Cx43 vector vs EV
Description: as §1

[4] = test system: Sk-Mel-147 melanoma cells (NRAS mutation); assay: Colony formation assay; details: Sk-Mel-147 transfected with Cx43 vector
Description: as §1

[5] = test system: MDA-MB-231 breast cancer cells (BRAF mutation); assay: Colony formation assay; details: MDA-MB-231 transfected with Cx43 vector vs EV
Description: as §1

[6] = test system: A375 cell line; assay: Gap junction intercellular communication: scrape loading and dye transfer; details: A375 transfected with Cx43 vector vs empty vector (EV)
Description: Cells were seeded on 6 or 12 wells and cultured until 80-100% of confluence and rinsed twice with warm PBS. Lucifer Yellow CH dilithium salt (1 mg/mL) (LY: Cell Projects Ltd© Kent) in PBS was added to the cells and parallel cuts (3 cuts per well) were performed with a surgical blade (Swann-Mortonscalpel®). After 3-5 min at 37° C. cells were washed with PBS and fixed 2% PFA in PBS. LY becomes incorporated by cells along the cut and move from the dye-loaded cells into adjacent ones connected by functional gap junction channels. The areas for LY loading were randomly selected in the central part of wells to obtain the images for quantification. Images were captured with 10× objective using a Nikon Eclipse Ti fluorescent microscope. The constant exposures were used for all images for a given experiment. Ten images per sample were quantified. The score was calculated as the ratio of the number of non-damage LY positive cells at the edge and the number of the LY positive cells outside the edge.
Cells were seeded on 12-wells plated and cultured until 80-100% of confluence. […] The fluorescence emitted was measured at 640/40 nm and 540/40 nm with two photodetectors, the time course of the passage of dye from the injected cell to the adjacent cells was studied.

[7] = test system: A375 melanoma cells; assay: Apoptosis assay, PI/YO-PRO-1 double staining, flow cytometry
Description: (§3) Supernatants (died cells) were aspirated and attached cells were harvested. Supernatants and cells were mixed, counted and 1 million cells were resuspended in 1 mL in flow cytometry (FC) buffer. Membrane viability analysis was performed by double staining PI/YO-PRO-1. YO-PRO-1 (Invitrogen) was added to the cells (150 nM) and incubated 10 min in the dark at 4° C. PI (Invitrogen) was added (2 μg/mL) and incubated for 5 min in the dark at 4° C. After the incubation time (PI/YO-PRO) samples were analyzed in a FACs Scalibur acquiring 20,000 event per triplicate. The red fluorescence emitted by PI was detected at 610 nm and the green florescence emitted by YO-PRO was detected at 515 nm. Data was analyzed using the FCS Express 6 Flow software.

[8] = test system: cleaved caspase 3 in A375 cells; assay: Cleaved caspase 3 western blot
Description: as §2

[9] = test system: A375 tumour cell line; assay: Cellular senescence: SA-β-Gal staining and flow cytometry
Description: The detection of SA-β-Gal activity was measured using the Senescence Cells Histochemical Staining Kit (Sigma-Aldrich). Cells were rinsed with warm PBS and fixed for 7 min at RT with a fixation buffer composed by 2% paraformaldehyde and 0.2% glutaraldehyde. After three washed with PBS, cells were incubated for 6 h or O/N at 37° C. without CO2 in a staining solution containing X-gal. This lactose analogue can be cleaved by β-galactosidase producing a blue insoluble product. Finally, cells were washed with PBS and images were taken using a light microscope.
SA-β-Gal activity was analyzed with the fluorogenic β-Galactosidase substrate di-β-D-galactopyranoside (FDG, Thermo Fisher Scientific), which is hydrolyzed by the endogenous β-galactosidase to fluorescein (FITC). Cells were harvested and incubated in a staining medium (PBS, 4% FBS, 10 mM HEPES, pH 7.2) at 37° C. for 10 min. The β-Galactosidase assay was started by adding warm 2 mM FDG to the cell suspension and after incubating for 3 min at 37° C. in the dark. The reaction was stopped with the addiction of ice-cold staining medium to the cells, which were kept on ice protected from light. […] was used for fluorescein and acquiring 20,000 event per triplicate. Data was analyzed using the FCS Express 6 Flow software.

[10] = test system: A375 cells resistant to BRAF/MEKi (DR); assay: Apoptosis assay (PI/YO-PRO-1) in double resistant cells; details: DR A375 cells transfected with Cx43 vector
Description: The BRAF mutated tumour cell lines A375 (melanoma), SK-Mel-28 (melanoma), MDA-MB-231 (human breast cancer) and HT-29 (human colorectal adenocarcinoma) were also used to test the role of Cx43 in drug resistance. SK-Mel147 (melanoma), NRAS mutated cell line was selected to compare the results with BRAF mutant cell lines. Cells were cultured in Dulbecco's modified Eagle's medium (DMEM) (Lonza) supplemented with 10% fetal bovine serum (FBS) (Gibco, Thermo Fisher Scientific) and 100 U/mL penicillin and 100 μg/ml streptomycin (Gibco, Thermo Fisher Scientific). […] After adding DMEM supplemented with 10% FBS, cells were transferred to falcon tube and counted using the Neubauer chamber method in a light microscope. […]
as §3, with “Membrane viability analysis was performed by double staining PI/YO-PRO-1. YO-PRO-1 (Invitrogen) was added to the cells (150 nM) and incubated 10 min in the dark at 4° C. PI (Invitrogen) was added (2 μg/mL) and incubated for 5 min in the dark at 4° C.” left out

Row | Molecule | colony formation capacity ([1]; 100 μM CBX for 7 days, A375 EV and Cx43-overexpressing cells) | levels of senescent biomarkers p53 and p16 [2] | cell proliferation and colony formation capacity ([1]; A375-Cx43 after 1-2 weeks and 4 months under 1 nM T/100 nM D) | cells detected ([1]; A375-Cx43 after 2 weeks under 1 nM T/100 nM D) | proliferation rate ([1]; A375 transfected with Cx43 vector vs empty vector, xCelligence, colony formation, CCK8) | capacity to form colonies ([1]; A375 with Cx43 vector plus different concentrations of dabrafenib and trametinib for 7 days) | capacity to form colonies [3] | capacity to form colonies [4] | capacity to form colonies [5] | dye coupling (GJIC) [6] | apoptosis ([7]; A375-Cx43 under BRAF/MEKi treatment (100 nM dabra, 1 nM trame, 5 days)) | basal percentage of early apoptotic cells ([7]; Cx43 overexpressing A375 vs empty vector) | levels of cleaved caspase-3 ([8]; Cx43 overexpression in combination with BRAF/MEKi (1/100 nM T/D, 5 days)) | levels of cleaved caspase-3 ([8]; Cx43 overexpression with BRAF/MEKi (T/D 4 days) followed by 24 h 3.5 μM NAV) | cellular senescence (flow cytometry, β-Gal staining) ([9]; A375-Cx43 vs A375-EV under 100 nM dabra and 1 nM trame for 5 days) | cellular senescence (ß-Galactosidase activity) ([9]; Cx43 re-expression by vector in A375, no drug) | MFI ratio of apoptotic cells [10]
1 | CC1(C)[C@@H](OC(=O)CCC(=O)O)CC[C@]2(C)[C@H]3C(=O)C=C4[C@@H]5C[C@@](C)(C(=O)O)CC[C@]5(C)CC[C@@]4(C)[C@]3(C)CC[C@@H]12 [CBX, Carbenoloxolone disodium salt, reference compound] | No changes were detected in colony formation capacity | – | – | – | – | – | – | – | – | – | – | – | – | – | – | – | –
2 | Cx43: channel protein Connexin 43, restored in tumour cells with a pIRESpuro2 plasmid containing the human Cx43 sequence | – | higher levels of the senescent biomarkers p53 and p16 than control cells | significantly less cell proliferation and colony formation capacity | Almost no cells were detected | significant reduction in the proliferation rate | significantly decreases the capacity to form colonies | significantly decreases the capacity to form colonies | significantly decreases the capacity to form colonies | significantly decreases the capacity to form colonies | increased levels of dye coupling compared with control EV | increases cellular senescence and apoptosis | significantly higher | showed the highest levels of cleavage caspase-3 | showed the highest levels of cleavage caspase-3 | enhanced cellular senescence | increases cellular senescence | increases the MFI ratio of apoptotic cells

— patent publication US20240173380A1, “CONNEXIN 43 FOR USE IN THE TREATMENT OF A CANCER TYPE CHARACTERIZED BY THE ACTIVATION OF A MITOGEN-ACTIVATED PROTEIN KINASE” (FUNDACIÓN PROFESOR NOVOA SANTOS, priority 2020, published 2024)
